Some results are limits rather than exact numbers.

The target of the first test is RIPK1 kinase (Homo sapiens (Human), UniProt Q13546). The experiment in a line: RIPK1 kinase inhibitory assay (ADP-Glo).
RIPK1 kinase, sequence (Q13546 whole entry): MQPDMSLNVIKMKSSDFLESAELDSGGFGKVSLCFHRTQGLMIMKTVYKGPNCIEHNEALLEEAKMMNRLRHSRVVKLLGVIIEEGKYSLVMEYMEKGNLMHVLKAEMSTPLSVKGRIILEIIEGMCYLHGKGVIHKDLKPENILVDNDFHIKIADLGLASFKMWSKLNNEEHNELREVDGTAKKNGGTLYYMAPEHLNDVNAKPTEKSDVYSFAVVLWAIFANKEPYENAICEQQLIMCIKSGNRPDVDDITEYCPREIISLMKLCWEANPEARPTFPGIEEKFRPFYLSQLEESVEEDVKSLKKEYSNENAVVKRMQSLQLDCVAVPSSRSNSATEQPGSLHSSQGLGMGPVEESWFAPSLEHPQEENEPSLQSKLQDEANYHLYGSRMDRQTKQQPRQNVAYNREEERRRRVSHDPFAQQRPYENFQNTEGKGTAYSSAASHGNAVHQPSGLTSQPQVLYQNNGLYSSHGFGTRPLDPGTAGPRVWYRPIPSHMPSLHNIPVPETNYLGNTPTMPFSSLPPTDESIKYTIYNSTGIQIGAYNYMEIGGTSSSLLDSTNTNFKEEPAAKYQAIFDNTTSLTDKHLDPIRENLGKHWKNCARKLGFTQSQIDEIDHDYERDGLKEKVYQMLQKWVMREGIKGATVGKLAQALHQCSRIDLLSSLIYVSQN
Details: not given
It counts as biochemical. How it is done: Materials and Instruments: ADP-Glo kinase kit (purchased from Promega), RIPK1 GST-Th-Tag (purchased from Bps Bioscience), MBP substrate (purchased from Millipore), nunc 384-well plate, ATP fluorescence analyzer Paradigm detection platform (purchased from Beckman coulter)
The compounds were diluted in DMSO and configured into a solution with a final concentration of 10 mM; Dilute RIP1 kinase from 140 ng/μL to 20 ng/μL for use. Dilute 10 mM of ATP to 100 μM for later use; Dilute 5 mg/mL of MBP to 1 mg/mL for later use. Appropriate embodiments were added into the well of the 384-well plate, 10 μl […] ATP was evenly mixed with 1 μl 1 mg/mL MB P, the mixed solution was added to the well, and 2 μL […] RIP1 kinase was added to the hole, and then incubated at room temperature for 1 h. Subsequently, 5 μL ADP-Glo reagent was added to each well and incubated at room temperature for 40 min. Then, 10 μL ADP-Glo detection reagent was added to each well and incubated at room temperature for 30 min. Finally, the RLU value (relative light unit) of each well was measured by ATP fluorometer, and each sample was repeated twice. Inhibition rate=(RLU value of blank group−RLU value of drug administration group)/RLU value of blank group×100%.
As for `O=C(c1cnco1)N1CCC2(CC1)CCN(Cc1cc(F)ccc1F)C2=O` [Compound 42, 2-(2,5-difluorobenzyl)-8-(oxazole-5-carbonyl)-2,8-diazaspiro[4.5]decan-1-one], half-maximal inhibition (IC50) required 1040 nM. In other words, the single-digit micromolar range.

The test is the same for the next values; noted with them: 10 μM compound; read-out: Inhibition rate of RIPK1 at 10 μM (%).
As for `O=C(c1cnco1)N1CCC2(CC1)CCN(Cc1cc(F)ccc1F)C2=O` [Compound 42, 2-(2,5-difluorobenzyl)-8-(oxazole-5-carbonyl)-2,8-diazaspiro[4.5]decan-1-one], the inhibition – broadly, the drop in the measured response relative to a control, in per cent – at 10 µM was greater than 50%.

For `O=C(c1ccccc1)N1CCC2(C=NN(Cc3ccc(F)cc3)C2=O)CC1` [Compound 65, 8-benzoyl-2-(4-fluorobenzyl)-2,3,8-triazaspiro[4.5]dec-3-en-1-one], the inhibition at 10 µM turned out to be 27%.

With `N#Cc1ccc(CN2CCC3(CCN(C(=O)c4ccccc4)CC3)C2=O)c(F)c1` [Compound 48, 4-((8-benzoyl-1-oxo-2,8-diazaspiro[4.5]decan-2-yl)methyl)-3-fluorobenzonitrile], the inhibition at 10 µM came out at 8%.

For the compound `O=C(c1ccccc1)N1CCC2(CC1)CN(Cc1ccccc1)C2=O` [Compound 73, 7-benzoyl-2-benzyl-2,7-diazaspiro[3.5]nonan-1-one], the inhibition at 10 µM amounted to 45%.

Regarding `O=C(c1ccccc1)N1CCC2(C=NN(Cc3ccccc3F)C2=O)CC1` [Compound 63, 8-benzoyl-2-(2-fluorobenzyl)-2,3,8-triazaspiro[4.5]dec-3-en-1-one], the inhibition at 10 µM is greater than 50%.

On to `O=C(c1ccccc1)N1CCC2(CC1)CCN(Cc1cccc(Cl)c1)C2=O` [Compound 10, 8-benzoyl-2-(3-chlorobenzyl)-2,8-diazaspiro[4.5]decan-1-one], for which the inhibition at 10 µM is greater than 50%.

Turning to `O=C(c1cscn1)N1CCC2(CC1)CCN(Cc1cc(F)ccc1F)C2=O` [Compound 75, 2-(2,5-difluorobenzyl)-8-(thiazole-4-carbonyl)-2,8-diazaspiro [4.5]decan-1-one], the inhibition at 10 µM was greater than 50%.

As to `CN1C(=O)N(CC2CCCCC2)C(=O)C12CCN(C(=O)c1ccccc1)CC2` [Compound 7, 8-benzoyl-3-(cyclohexylmethyl)-1-methyl-1,3,8-triazaspiro [4.5]decane-2,4-dione], the inhibition at 10 µM was 34%.

With `O=C(c1ccccc1)N1CCC2(CC1)CCN(Cc1cc(F)c(F)cc1F)C2=O` [Compound 41, 8-benzoyl-2-(2,4,5-trifluorobenzyl)-2,8-diazaspiro[4.5]decan-1-one], the inhibition at 10 µM was greater than 50%.

As for `O=C(c1ccccc1)N1CCC2(CC1)CCN(Cc1cccc(F)c1F)C2=O` [Compound 40, 8-benzoyl-2-(2,3-difluorobenzyl)-2,8-diazaspiro[4.5]decan-1-one], the inhibition at 10 µM was greater than 50%.

Take `CN1C(=O)N(Cc2ccc(C(F)(F)F)cc2)C(=O)C12CCN(C(=O)c1ccccc1)CC2` [Compound 4, 8-benzoyl-1-methyl-3-(4-(trifluoromethyl)benzyl)-1,3,8-triazaspiro decane-2,4-dione]: the inhibition at 10 µM turned out to be 16%.

Take `O=C(c1ccccc1)N1CCC2(CC1)CCN(Cc1ccc(F)c(F)c1F)C2=O` [Compound 38, 8-benzoyl-2-(2,3,4-trifluorobenzyl)-2,8-diazaspiro[4.5]decan-1-one]: the inhibition at 10 µM was greater than 50%.

Consider `CN1CCC2(CC1)CCN(Cc1ccccc1)C2=O` [Compound 21, 2-benzyl-8-methyl-2,8-diazaspiro[4.5]decan-1-one], for which the inhibition at 10 µM was 5%.

For `O=C(c1ccc2cc[nH]c2c1)N1CCC2(CC1)CCN(Cc1ccccc1)C2=O` [Compound 25, 2-benzyl-8-(1H-indole-6-carbonyl)-2,8-diazaspiro[4.5]decan-1-one], the inhibition at 10 µM was greater than 50%.

For the compound `O=C(c1ccccc1)N1CCC2(C=NN(Cc3cccc(Cl)c3)C2=O)CC1` [Compound 70, 8-benzoyl-2-(3-chlorobenzyl)-2,3,8-triazaspiro[4.5]dec-3-en-1-one], the inhibition at 10 µM came out at 44%.

For the compound `O=C(c1ccccc1)N1CCC2(CC1)CCN(Cc1cc(F)cc(F)c1F)C2=O` [Compound 53, 8-benzoyl-2-(2,3,5-trifluorobenzyl)-2,8-diazaspiro[4.5]decan-1-one], the inhibition at 10 µM was greater than 50%.

Take `CC(C)N1CCC2(CCN(Cc3ccccc3)C2=O)CC1` [Compound 22, 2-benzyl-8-isopropyl-2,8-diazaspiro[4.5]decan-1-one]: the inhibition at 10 µM was 8%.

Regarding `CN1C(=O)N(Cc2cccnc2)C(=O)C12CCN(C(=O)c1ccccc1)CC2` [Compound 5, 8-benzoyl-1-methyl-3-(pyridin-3-ylmethyl)-1,3,8-triazaspiro [4.5]decane-2,4-dione], the inhibition at 10 µM stood at 20%.

For the compound `N#Cc1ccc(CN2N=CC3(CCN(C(=O)c4ccccc4)CC3)C2=O)cc1` [Compound 69, 4-((8-benzoyl-1-oxo-2,3,8-triazaspiro[4.5]dec-3-en-2-yl)methyl) benzonitrile], the inhibition at 10 µM came out at 9%.

Consider `O=C(c1ccccc1)N1CCC2(CC1)CCN(Cc1c(F)cccc1F)C2=O` [Compound 37, 8-benzoyl-2-(2,6-difluorobenzyl)-2,8-diazaspiro[4.5]decan-1-one], for which the inhibition at 10 µM is greater than 50%.

On to `O=C(c1ccccc1)N1CCC2(CC1)CCN(CC1CCCC1)C2=O` [Compound 12, 8-benzoyl-2-(cyclopentylmethyl)-2,8-diazaspiro[4.5]decan-1-one], for which the inhibition at 10 µM was greater than 50%.

On to `O=C(c1ccccc1)N1CCC2(CC1)N=CN(Cc1ccccc1)C2=O` [Compound 59, 8-benzoyl-3-benzyl-1,3,8-triazaspiro[4.5]dec-1-en-4-one], for which the inhibition at 10 µM came to 38%.

As for `Cc1nnc(N2CCC3(CCN(Cc4cc(F)ccc4F)C3=O)CC2)o1` [Compound 55, 2-(2,5-difluorobenzyl)-8-(5-methyl-1,3,4-oxadiazol-2-yl)-2,8-diazaspiro[4.5]decan-1-one], the inhibition at 10 µM came to 13%.

Turning to `O=C(c1ccccc1)N1CCC2(C=NN(Cc3ccccc3)C2=O)CC1` [Compound 62, 8-benzoyl-2-benzyl-2,3,8-triazaspiro[4.5]dec-3-en-1-one], the inhibition at 10 µM was greater than 50%.

For `O=C(c1ccccc1)N1CCC2(CC1)CCN(Cc1ccccc1)C2=O` [Compound 9, 8-benzoyl-2-benzyl-2,8-diazaspiro[4.5]decan-1-one], the inhibition at 10 µM was greater than 50%.

`N#Cc1ccc(N2CCC3(CCN(Cc4cc(F)ccc4F)C3=O)CC2)nn1` [Compound 56, 6-(2-(2,5-difluorobenzyl)-1-oxo-2,8-diazaspiro[4.5]decan-8-yl)pyridazine-3-carbonitrile]: the inhibition at 10 µM came out at 17%.

`O=C(c1ccccc1)N1CCC2(CC1)CCN(Cc1ccc(F)cc1F)C2=O` [Compound 43, 8-benzoyl-2-(2,4-difluorobenzyl)-2,8-diazaspiro[4.5]decan-1-one]: the inhibition at 10 µM is greater than 50%.

In the case of `O=C(c1c[nH]c2ccccc12)N1CCC2(CC1)CCN(Cc1ccccc1)C2=O` [Compound 23, 2-benzyl-8-(1H-indole-3-carbonyl)-2,8-diazaspiro[4.5]decan-1-one], the inhibition at 10 µM is greater than 50%.

`O=C1N(Cc2ccccc2)CCC12CCN(S(=O)(=O)c1ccccc1)CC2` [Compound 20, 2-benzyl-8-(phenylsulfonyl)-2,8-diazaspiro [4.5]decan-1-one]: the inhibition at 10 µM worked out at 21%.

For `CN1C(=O)N(CC2CCCC2)C(=O)C12CCN(C(=O)c1ccccc1)CC2` [Compound 8, 8-benzoyl-3-(cyclopentylmethyl)-1-methyl-1,3,8-triazaspiro [4.5]decane-2,4-dione], the inhibition at 10 µM worked out at 22%.

As for `Cn1ccc2ccc(C(=O)N3CCC4(CC3)CCN(Cc3ccccc3)C4=O)cc21` [Compound 29, 2-benzyl-8-(1-methyl-1H-indole-6-carbonyl)-2,8-diazaspiro[4.5]decan-1-one], the inhibition at 10 µM was greater than 50%.

Consider `O=C(c1ccccc1)N1CCC2(C=NN(Cc3cc(F)cc(F)c3)C2=O)CC1` [Compound 67, 8-benzoyl-2-(3,5-difluorobenzyl)-2,3,8-triazaspiro[4.5]dec-3-en-1-one], for which the inhibition at 10 µM was greater than 50%.

The subject of the next test is U937 cells. The experiment in a line: Cell anti-necroptosis activity assay (LPS + Z-VAD-FMK, CCK8). It is filed as cell-based. The note with it: Homo sapiens, U-937; PMA-differentiated U937, LPS 100 ng/ml + Z-VAD-FMK 20 μM, 24 h; read-out: EC50 of inhibition of necroptosis. The protocol:
Materials: U937 cell line (human myeloid leukemia cells), RPMI 1640 medium (purchased from Gibco, USA), penicillin-streptomycin double antibody (purchased from Gibco, USA), fetal bovine serum (purchased from genetic, USA), tetradecanoylphorbol acetate (purchased from biyuntian Biotechnology Co., Ltd.), CCK8 cell proliferation detection kit (purchased from biyuntian Biotechnology Co., Ltd), Z-VAD-FMK (from APExBIO, USA) and LPS (from Sigma, USA).
U937 cells were cultured in RPMI 1640 containing 10% heat inactivated fetal bovine serum and 1% penicillin-streptomycin in a constant temperature cell incubator at 37° C. and 5% CO2, and subcultured every 1-2 days. Human monocytic cell line U937 cells could be induced to differentiate into mature monocytes/macrophages after stimulation with tetradecanoylphorbol acetate (PMA). The cells in the logarithmic growth phase were seeded in 96 well plates at a density of 4×10^4 cells/well and cultured. PMA 100 ng/ml was added for 24 h, and then the fresh medium was changed. The necroptosis model was constructed by stimulation of LPS and caspase inhibitor Z-VAD-FMK. In the experimental groups, LPS (100 ng/ml) was added for 1 hour, and then the solvent control (DMSO) or different concentrations of compounds to be tested (30 μM, 10 μM, 3 μM, 1 μM, 300 nM, 100 nM, 30 nM 7 concentrations in total) for 1 h, and then the experimental groups were treated with caspase inhibitor Z-VAD-FMK (20 μM). The cell viability was detected after 24 h of culture. The control groups were not treated with LPS, drugs and Z-VAD-FMK. No cells were added to the blank hole, only the culture medium. Each group is set with 4 parallel. CCK8 cell proliferation assay kit was used to detect the cell viability and survival rate, and the operation was carried out according to the kit instructions. The cell supernatant was added with 10 μL CCK8 detection reagent, and the cell absorbance (450 nm) was detected by a microplate reader after 0.5 h. Calculate the cell death rate (%)=(average absorbance of control well−average absorbance of experimental group)/(average absorbance of control well−average absorbance of the blank well)×100. Finally, the half effective concentration (EC50) of the drug was calculated by GraphPad Prism 7.0® software.
As to `O=C(c1cnco1)N1CCC2(CC1)CCN(Cc1cc(F)ccc1F)C2=O` [Compound 42, 2-(2,5-difluorobenzyl)-8-(oxazole-5-carbonyl)-2,8-diazaspiro[4.5]decan-1-one], the EC50 (as a rule, the concentration that produces a half-maximal response) was found to be 1650 nM.

For the origin of these results see patent US20250129073A1, “INHIBITOR OF RECEPTOR-INTERACTING PROTEIN KINASE 1, AND PREPARATION METHOD AND USE THEREFOR” (CHINA PHARMACEUTICAL UNIVERSITY, priority 2021, published 2025).
